Laboratory results reported in PubChem BioAssay (NCI).
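Interpolation was linear, between the two tested concentrations surrounding the appropriate level; five concentrations were tested over 48 hours in 96-well plates. TGI denotes the concentration required for complete inhibition of growth.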

Tests used:
Assay in all cases: NCI tumour cell line growth inhibition, 48 h
HCT-15 colon = test system: HCT-15 colon
SW-620 colon = test system: SW-620 colon
COLO 205 colon = test system: COLO 205 colon
HOP-18 NSCLC = test system: HOP-18 NSCLC
NCI-H23 lung = test system: NCI-H23 lung
HOP-62 NSCLC = test system: HOP-62 NSCLC
RXF 393 renal = test system: RXF 393 renal
NCI-H522 lung = test system: NCI-H522 lung
CCRF-CEM leukemia = test system: CCRF-CEM leukemia
ACHN renal = test system: ACHN renal
UACC-257 melanoma = test system: UACC-257 melanoma
A549 NSCLC = test system: A549 NSCLC
KM20L2 colon = test system: KM20L2 colon
LOX IMVI melanoma = test system: LOX IMVI melanoma
HOP-92 NSCLC = test system: HOP-92 NSCLC
SK-MEL-2 melanoma = test system: SK-MEL-2 melanoma
SF-268 CNS = test system: SF-268 CNS
OVCAR-4 ovarian = test system: OVCAR-4 ovarian
SK-MEL-5 melanoma = test system: SK-MEL-5 melanoma
DMS 114 small cell lung = test system: DMS 114 small cell lung
RXF-631 renal = test system: RXF-631 renal
NCI-H226 lung = test system: NCI-H226 lung
HL-60(TB) leukemia = test system: HL-60(TB) leukemia
SR leukemia = test system: SR leukemia
U251 CNS = test system: U251 CNS
NCI-H460 lung = test system: NCI-H460 lung
MALME-3M melanoma = test system: MALME-3M melanoma
MOLT-4 leukemia = test system: MOLT-4 leukemia
CAKI-1 renal = test system: CAKI-1 renal
SF-295 CNS = test system: SF-295 CNS
SN12C renal = test system: SN12C renal
HCT-116 colon = test system: HCT-116 colon
RPMI-8226 leukemia = test system: RPMI-8226 leukemia
KM12 colon = test system: KM12 colon
DLD-1 colon = test system: DLD-1 colon
XF 498 CNS = test system: XF 498 CNS
SK-OV-3 ovarian = test system: SK-OV-3 ovarian
HCC-2998 colon = test system: HCC-2998 colon
OVCAR-5 ovarian = test system: OVCAR-5 ovarian
M14 melanoma = test system: M14 melanoma
HT29 colon = test system: HT29 colon
SNB-78 CNS = test system: SNB-78 CNS
SNB-75 CNS = test system: SNB-75 CNS
SNB-19 CNS = test system: SNB-19 CNS
A498 renal = test system: A498 renal
SK-MEL-28 melanoma = test system: SK-MEL-28 melanoma
LXFL 529 NSCLC = test system: LXFL 529 NSCLC
TK-10 renal = test system: TK-10 renal
DMS 273 small cell lung = test system: DMS 273 small cell lung
SF-539 CNS = test system: SF-539 CNS
UO-31 renal = test system: UO-31 renal
M19-MEL melanoma = test system: M19-MEL melanoma
K-562 leukemia = test system: K-562 leukemia
OVCAR-3 ovarian = test system: OVCAR-3 ovarian
OVCAR-8 ovarian = test system: OVCAR-8 ovarian
786-0 renal = test system: 786-0 renal
EKVX NSCLC = test system: EKVX NSCLC
IGROV1 ovarian = test system: IGROV1 ovarian
UACC-62 melanoma = test system: UACC-62 melanoma

## O=C1c2cccc(O)c2C(=O)c2c(O)cc(CO)cc21
HCT-15 colon
  TGI: > 100 µM
SW-620 colon
  TGI: > 100 µM
COLO 205 colon
  TGI: > 100 µM
HOP-18 NSCLC
  TGI: > 100 µM
NCI-H23 lung
  TGI: > 100 µM
HOP-62 NSCLC
  TGI: > 100 µM
RXF 393 renal
  TGI: > 100 µM
NCI-H522 lung
  TGI: 64.6 µM
CCRF-CEM leukemia
  TGI: > 100 µM
ACHN renal
  TGI: > 100 µM
UACC-257 melanoma
  TGI: > 100 µM
A549 NSCLC
  TGI: > 100 µM
KM20L2 colon
  TGI: > 100 µM
LOX IMVI melanoma
  TGI: > 100 µM
HOP-92 NSCLC
  TGI: > 100 µM
SK-MEL-2 melanoma
  TGI: > 100 µM
SF-268 CNS
  TGI: > 100 µM
OVCAR-4 ovarian
  TGI: > 100 µM
SK-MEL-5 melanoma
  TGI: 30.7 µM
DMS 114 small cell lung
  TGI: > 100 µM
RXF-631 renal
  TGI: > 100 µM
NCI-H226 lung
  TGI: > 100 µM
HL-60(TB) leukemia
  TGI: > 100 µM
SR leukemia
  TGI: > 100 µM
U251 CNS
  TGI: > 100 µM
NCI-H460 lung
  TGI: > 100 µM
MALME-3M melanoma
  TGI: 83.6 µM
MOLT-4 leukemia
  TGI: > 100 µM
CAKI-1 renal
  TGI: > 100 µM
SF-295 CNS
  TGI: > 100 µM
SN12C renal
  TGI: > 100 µM
HCT-116 colon
  TGI: > 100 µM
RPMI-8226 leukemia
  TGI: > 100 µM
KM12 colon
  TGI: > 100 µM
DLD-1 colon
  TGI: > 100 µM
XF 498 CNS
  TGI: > 100 µM
SK-OV-3 ovarian
  TGI: > 100 µM
HCC-2998 colon
  TGI: > 100 µM
OVCAR-5 ovarian
  TGI: > 100 µM
M14 melanoma
  TGI: > 100 µM
HT29 colon
  TGI: > 100 µM
SNB-78 CNS
  TGI: > 100 µM
SNB-75 CNS
  TGI: > 100 µM
SNB-19 CNS
  TGI: > 100 µM
A498 renal
  TGI: > 100 µM
SK-MEL-28 melanoma
  TGI: > 100 µM
LXFL 529 NSCLC
  TGI: > 100 µM
TK-10 renal
  TGI: > 100 µM
DMS 273 small cell lung
  TGI: > 100 µM

## Cc1c(C(=O)/C=C/c2ccccc2[N+](=O)[O-])[n+](=O)c2ccccc2n1[O-]
HCT-15 colon
  TGI: 12.6 µM
SW-620 colon
  TGI: 17.5 µM
COLO 205 colon
  TGI: 13.7 µM
HOP-18 NSCLC
  TGI: 28.7 µM
NCI-H23 lung
  TGI: 17.8 µM
HOP-62 NSCLC
  TGI: 32.2 µM
NCI-H522 lung
  TGI: 19.1 µM
ACHN renal
  TGI: 24.2 µM
UACC-257 melanoma
  TGI: 20.4 µM
A549 NSCLC
  TGI: 34.3 µM
KM20L2 colon
  TGI: 18 µM
HOP-92 NSCLC
  TGI: 27.4 µM
SF-539 CNS
  TGI: 10.2 µM
SK-MEL-2 melanoma
  TGI: 24.1 µM
OVCAR-4 ovarian
  TGI: 22.8 µM
SK-MEL-5 melanoma
  TGI: 24.4 µM
DMS 114 small cell lung
  TGI: 18 µM
RXF-631 renal
  TGI: 23.9 µM
NCI-H226 lung
  TGI: 24 µM
HL-60(TB) leukemia
  TGI: 5.71 µM
SR leukemia
  TGI: 31.6 µM
U251 CNS
  TGI: 28.5 µM
NCI-H460 lung
  TGI: 22.5 µM
MALME-3M melanoma
  TGI: 27.8 µM
MOLT-4 leukemia
  TGI: 29.3 µM
CAKI-1 renal
  TGI: 15.7 µM
SF-295 CNS
  TGI: 20.4 µM
SN12C renal
  TGI: 18.6 µM
HCT-116 colon
  TGI: 16.5 µM
UO-31 renal
  TGI: 33 µM
RPMI-8226 leukemia
  TGI: 14.7 µM
KM12 colon
  TGI: 22 µM
M19-MEL melanoma
  TGI: 20.5 µM
DLD-1 colon
  TGI: 17.9 µM
K-562 leukemia
  TGI: 30.6 µM
OVCAR-3 ovarian
  TGI: 13.3 µM
OVCAR-8 ovarian
  TGI: 14.3 µM
786-0 renal
  TGI: 17.8 µM
SK-OV-3 ovarian
  TGI: 31.8 µM
OVCAR-5 ovarian
  TGI: 26.9 µM
M14 melanoma
  TGI: 23.1 µM
EKVX NSCLC
  TGI: 27.6 µM
HT29 colon
  TGI: 23.2 µM
SNB-78 CNS
  TGI: 70.7 µM
SNB-75 CNS
  TGI: 30.3 µM
SNB-19 CNS
  TGI: 33.4 µM
A498 renal
  TGI: 26 µM
SK-MEL-28 melanoma
  TGI: 25.5 µM
LXFL 529 NSCLC
  TGI: 16.6 µM
IGROV1 ovarian
  TGI: 29.9 µM
DMS 273 small cell lung
  TGI: 16.8 µM

## CC(=O)n1c(=O)c2cc3c(=O)n(-c4cccc(C#N)c4)c(=O)c3cc2c1=O
HCT-15 colon
  TGI: > 100 µM
SW-620 colon
  TGI: > 100 µM
COLO 205 colon
  TGI: > 100 µM
HOP-18 NSCLC
  TGI: > 100 µM
NCI-H23 lung
  TGI: > 100 µM
HOP-62 NSCLC
  TGI: > 100 µM
RXF 393 renal
  TGI: > 100 µM
NCI-H522 lung
  TGI: > 100 µM
CCRF-CEM leukemia
  TGI: > 100 µM
ACHN renal
  TGI: > 100 µM
UACC-257 melanoma
  TGI: > 100 µM
A549 NSCLC
  TGI: > 100 µM
KM20L2 colon
  TGI: > 100 µM
LOX IMVI melanoma
  TGI: > 100 µM
HOP-92 NSCLC
  TGI: > 100 µM
SF-539 CNS
  TGI: > 100 µM
SK-MEL-2 melanoma
  TGI: > 100 µM
SF-268 CNS
  TGI: > 100 µM
OVCAR-4 ovarian
  TGI: > 100 µM
SK-MEL-5 melanoma
  TGI: > 100 µM
DMS 114 small cell lung
  TGI: > 100 µM
RXF-631 renal
  TGI: > 100 µM
NCI-H226 lung
  TGI: > 100 µM
HL-60(TB) leukemia
  TGI: > 100 µM
U251 CNS
  TGI: > 100 µM
NCI-H460 lung
  TGI: > 100 µM
MALME-3M melanoma
  TGI: > 100 µM
CAKI-1 renal
  TGI: > 100 µM
SF-295 CNS
  TGI: > 100 µM
SN12C renal
  TGI: > 100 µM
HCT-116 colon
  TGI: > 100 µM
UO-31 renal
  TGI: > 100 µM
KM12 colon
  TGI: > 100 µM
M19-MEL melanoma
  TGI: > 100 µM
DLD-1 colon
  TGI: > 100 µM
K-562 leukemia
  TGI: > 100 µM
OVCAR-3 ovarian
  TGI: > 100 µM
OVCAR-8 ovarian
  TGI: > 100 µM
786-0 renal
  TGI: > 100 µM
SK-OV-3 ovarian
  TGI: > 100 µM
HCC-2998 colon
  TGI: > 100 µM
OVCAR-5 ovarian
  TGI: > 100 µM
M14 melanoma
  TGI: > 100 µM
EKVX NSCLC
  TGI: > 100 µM
HT29 colon
  TGI: > 100 µM
SNB-78 CNS
  TGI: > 100 µM
SNB-75 CNS
  TGI: 54.6 µM
SNB-19 CNS
  TGI: > 100 µM
A498 renal
  TGI: > 100 µM
SK-MEL-28 melanoma
  TGI: > 100 µM
LXFL 529 NSCLC
  TGI: > 100 µM
TK-10 renal
  TGI: > 100 µM
IGROV1 ovarian
  TGI: > 100 µM
DMS 273 small cell lung
  TGI: > 100 µM
UACC-62 melanoma
  TGI: > 100 µM

## C=C1C2Oc3ccccc3C1N(c1ccccc1)O2 (stereo unspecified)
HCT-15 colon
  TGI: > 100 µM
SW-620 colon
  TGI: > 100 µM
COLO 205 colon
  TGI: > 100 µM
HOP-62 NSCLC
  TGI: > 100 µM
RXF 393 renal
  TGI: > 100 µM
NCI-H522 lung
  TGI: 80.8 µM
CCRF-CEM leukemia
  TGI: 89.5 µM
ACHN renal
  TGI: > 100 µM
UACC-257 melanoma
  TGI: > 100 µM
A549 NSCLC
  TGI: > 100 µM
KM20L2 colon
  TGI: > 100 µM
LOX IMVI melanoma
  TGI: 36.2 µM
SF-539 CNS
  TGI: 57.3 µM
SK-MEL-2 melanoma
  TGI: > 100 µM
SF-268 CNS
  TGI: > 100 µM
OVCAR-4 ovarian
  TGI: 75.3 µM
DMS 114 small cell lung
  TGI: 79 µM
RXF-631 renal
  TGI: 45.6 µM
NCI-H226 lung
  TGI: > 100 µM
HL-60(TB) leukemia
  TGI: > 100 µM
SR leukemia
  TGI: > 100 µM
U251 CNS
  TGI: 90 µM
NCI-H460 lung
  TGI: 55.5 µM
MALME-3M melanoma
  TGI: > 100 µM
MOLT-4 leukemia
  TGI: > 100 µM
CAKI-1 renal
  TGI: > 100 µM
SF-295 CNS
  TGI: 62.7 µM
SN12C renal
  TGI: 88.1 µM
HCT-116 colon
  TGI: 54.2 µM
UO-31 renal
  TGI: > 100 µM
RPMI-8226 leukemia
  TGI: > 100 µM
KM12 colon
  TGI: 42.2 µM
M19-MEL melanoma
  TGI: > 100 µM
DLD-1 colon
  TGI: > 100 µM
K-562 leukemia
  TGI: > 100 µM
XF 498 CNS
  TGI: 43.5 µM
OVCAR-3 ovarian
  TGI: > 100 µM
OVCAR-8 ovarian
  TGI: 33.2 µM
786-0 renal
  TGI: > 100 µM
SK-OV-3 ovarian
  TGI: > 100 µM
HCC-2998 colon
  TGI: > 100 µM
OVCAR-5 ovarian
  TGI: > 100 µM
M14 melanoma
  TGI: 67.1 µM
EKVX NSCLC
  TGI: > 100 µM
HT29 colon
  TGI: 67.5 µM
SNB-75 CNS
  TGI: > 100 µM
SNB-19 CNS
  TGI: > 100 µM
SK-MEL-28 melanoma
  TGI: > 100 µM
LXFL 529 NSCLC
  TGI: > 100 µM
TK-10 renal
  TGI: > 100 µM
IGROV1 ovarian
  TGI: > 100 µM
